Assays:
MDR proteins [1] = test: Intracellular accumulation of fluorescent drug efflux probes in MDCK-MDR1 cells with trypan blue; format: cell-based, human; details: calcein-AM 1 μM, BCECF-AM 1 μM, rhodamine 123 3.2 μM, 0.04% or 0.1% trypan blue
MDR proteins [2] = test: Intracellular accumulation of fluorescent drug efflux probes in Caco2 cells with trypan blue; format: cell-based, human; details: calcein-AM 1 μM, BCECF-AM 1 μM, rhodamine 123 3.2 μM, 0.04% or 0.1% trypan blue
Method: (§1) FIGS. 1A-1C show intracellular accumulation of calcein-AM (1 μM) in Madin-Darby canine kidney cells transfected with human MDR1 gene (MDCK-MDR1; FIG. 1A); human, […], colon adenocarcinoma cells (Caco2; FIG. 1B); and bovine brain microvessel endothelial cells (BBMEC, FIG. 1C) exposed to MDR1 inhibitor GF120918, MRP inhibitor indomethacin, or GF120918 in combination with indomethacin. Trypan blue (0.04%) was used to quench extracellular fluorescence.
(§2) FIGS. 2A-2C show intracellular accumulation of BCECF-AM (1 μM) in MDCK-MDR1 (FIG. 2A), Caco2 (FIG. 2B), and BBMEC (FIG. 2C) cells exposed to MDR1 inhibitor GF120918, MRP inhibitor indomethacin, or GF120918 in combination with indomethacin. Trypan blue (0.04%) was used to quench extracellular fluorescence.
(§3) FIGS. 3A-3C show intracellular accumulation of rhodamine 123 (3.2 μM) in MDCK-MDR1 (FIG. 3A), Caco2 (FIG. 3B), and BBMEC (FIG. 3C) cells exposed to MDR1 inhibitor GF120918, MRP inhibitor indomethacin, or GF120918 in combination with indomethacin. Trypan blue (0.1%) was used to quench extracellular fluorescence. […]

MDR proteins [3] = test: Intracellular accumulation of fluorescent drug efflux probes in BBMEC cells with trypan blue; format: cell-based, bovine; details: calcein-AM 1 μM, BCECF-AM 1 μM, rhodamine 123 3.2 μM, 0.04% or 0.1% trypan blue
Method: as §1, §2, §3

MDR1 [4] = target: T1, MDR1 (Homo sapiens, UniProt P08183); details: isolated membranes; Homolya et al. (1993); read-out: Kd as activator of MDR1; cited from earlier work
T1 sequence (P08183 whole entry, species assumed): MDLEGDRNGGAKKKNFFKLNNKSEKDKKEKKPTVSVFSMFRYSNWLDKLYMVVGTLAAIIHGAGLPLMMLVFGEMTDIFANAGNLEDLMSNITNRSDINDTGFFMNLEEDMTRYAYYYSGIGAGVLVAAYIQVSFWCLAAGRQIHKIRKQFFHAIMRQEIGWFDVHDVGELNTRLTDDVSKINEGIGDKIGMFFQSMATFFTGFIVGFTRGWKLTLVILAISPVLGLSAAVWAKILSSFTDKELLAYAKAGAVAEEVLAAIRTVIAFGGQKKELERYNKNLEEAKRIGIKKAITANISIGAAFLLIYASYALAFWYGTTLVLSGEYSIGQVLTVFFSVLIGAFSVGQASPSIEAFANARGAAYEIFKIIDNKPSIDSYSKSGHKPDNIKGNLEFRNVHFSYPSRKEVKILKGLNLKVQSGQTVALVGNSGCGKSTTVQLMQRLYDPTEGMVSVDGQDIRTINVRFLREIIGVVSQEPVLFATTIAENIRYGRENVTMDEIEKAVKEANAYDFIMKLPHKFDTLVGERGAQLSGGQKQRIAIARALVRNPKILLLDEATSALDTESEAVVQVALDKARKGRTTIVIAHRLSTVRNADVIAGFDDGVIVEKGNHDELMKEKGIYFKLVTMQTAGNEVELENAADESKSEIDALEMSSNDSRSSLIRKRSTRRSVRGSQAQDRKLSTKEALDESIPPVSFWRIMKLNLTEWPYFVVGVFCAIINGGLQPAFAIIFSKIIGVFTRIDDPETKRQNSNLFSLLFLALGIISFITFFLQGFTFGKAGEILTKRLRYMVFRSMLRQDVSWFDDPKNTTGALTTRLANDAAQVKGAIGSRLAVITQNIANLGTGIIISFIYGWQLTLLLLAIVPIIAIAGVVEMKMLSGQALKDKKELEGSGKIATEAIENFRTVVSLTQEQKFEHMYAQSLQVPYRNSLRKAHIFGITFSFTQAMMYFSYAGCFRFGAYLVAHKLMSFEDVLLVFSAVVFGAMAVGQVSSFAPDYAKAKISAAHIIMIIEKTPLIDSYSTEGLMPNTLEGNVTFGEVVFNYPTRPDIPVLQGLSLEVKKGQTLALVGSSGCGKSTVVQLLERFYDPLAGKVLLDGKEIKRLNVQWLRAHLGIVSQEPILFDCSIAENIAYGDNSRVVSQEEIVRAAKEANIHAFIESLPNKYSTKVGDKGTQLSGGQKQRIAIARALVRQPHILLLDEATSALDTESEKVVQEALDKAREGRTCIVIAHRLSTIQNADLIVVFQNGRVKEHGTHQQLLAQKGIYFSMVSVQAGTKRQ

MDR proteins [5] = test: Intracellular accumulation of calcein in MDCK-MDR1 cells in the presence of therapeutic agents and trypan blue; details: for Area Under the Curve ± SEM (intracellular calcein accumulation): monitored for 300 minutes; for interaction with MDR proteins (area under the curve of calcein vs control): summary statement
Method: Intracellular accumulation was monitored for 300 minutes in a 96-well format and the area under curve for each treatment was determined. The larger the area under the curve, the greater the intracellular accumulation of calcein and, by extension, the greater the influence of the therapeutic agent on MDR protein activity.

MDR1 [6] = target: T1, MDR1

Compound: COc1ccc2c(c1)c(CC(=O)O)c(C)n2C(=O)c1ccc(Cl)cc1 [indomethacin]
- intracellular accumulation of calcein-AM, BCECF and rhodamine 123 (MDR proteins [1]): increase in the intracellular accumulation
- intracellular accumulation of calcein-AM, BCECF and rhodamine 123 (MDR proteins [2]): increase in the intracellular accumulation
- intracellular accumulation of calcein-AM, BCECF and rhodamine 123 (MDR proteins [3]): increase in the intracellular accumulation

Compound: calcein-acetoxy-methylester [Calcein-AM]
- Kd (MDR1 [4]): ≤ 1000 nM

Compound: O=c1[nH]cc(F)c(=O)[nH]1 [5-Fluorouracil, 5-fluorouracil]
- Ratio to Control (area under the curve) (MDR proteins [5]; 1 μM): 1.20
- Area Under the Curve ± SEM (intracellular calcein accumulation) (MDR proteins [5]; 1 μM): 3.07 ± 0.217
- Ratio to Control (area under the curve) (MDR proteins [5]; 10 μM): 1.30
- Area Under the Curve ± SEM (intracellular calcein accumulation) (MDR proteins [5]; 10 μM): 3.33 ± 0.269
- Ratio to Control (area under the curve) (MDR proteins [5]; 100 μM): 0.87
- Area Under the Curve ± SEM (intracellular calcein accumulation) (MDR proteins [5]; 100 μM): 2.24 ± 0.322

Compound: Cc1nc2n(c(=O)c1CCN1CCC(c3noc4cc(F)ccc34)CC1)CCCC2 [Risperidone, risperidone]
- Ratio to Control (area under the curve) (MDR proteins [5]; 1 μM): 1.53
- Area Under the Curve ± SEM (intracellular calcein accumulation) (MDR proteins [5]; 1 μM): 3.92 ± 0.412
- Ratio to Control (area under the curve) (MDR proteins [5]; 10 μM): 2.19
- Area Under the Curve ± SEM (intracellular calcein accumulation) (MDR proteins [5]; 10 μM): 5.62 ± 0.259
- Ratio to Control (area under the curve) (MDR proteins [5]; 100 μM): 6.64
- Area Under the Curve ± SEM (intracellular calcein accumulation) (MDR proteins [5]; 100 μM): 17.02 ± 0.310
- interaction with MDR proteins (area under the curve of calcein vs control) (MDR proteins [5]): strong interaction with MDR proteins

Compound: CC(C)CN(C[C@@H](O)[C@H](Cc1ccccc1)NC(=O)O[C@H]1CCOC1)S(=O)(=O)c1ccc(N)cc1 [amprenavir]
- Area Under the Curve ± SEM (intracellular calcein accumulation) (MDR proteins [5]; 1 μM): 4.06 ± 0.518
- Area Under the Curve ± SEM (intracellular calcein accumulation) (MDR proteins [5]; 10 μM): 5.44 ± 0.357
- Area Under the Curve ± SEM (intracellular calcein accumulation) (MDR proteins [5]; 100 μM): 16.25 ± 0.798
- interaction with MDR proteins (area under the curve of calcein vs control) (MDR proteins [5]): strong interaction with MDR proteins

Compound: COc1cc2c(cc1OC)CN(CCc1ccc(NC(=O)c3cccc4c(=O)c5cccc(OC)c5[nH]c34)cc1)CC2 [GF120918]
- intracellular accumulation of calcein-AM, BCECF and rhodamine 123 (MDR proteins [1]): increase in the intracellular accumulation
- intracellular accumulation of calcein-AM, BCECF and rhodamine 123 (MDR proteins [2]): increase in the intracellular accumulation
- initial fluorescence (uptake of rhodamine 123 at a single time point) (MDR1 [6]): greater initial fluorescence
- intracellular accumulation of calcein-AM, BCECF and rhodamine 123 (MDR proteins [3]): increase in the intracellular accumulation
- Ratio to Control (area under the curve) (MDR proteins [5]; 3.2 μM): 8.81
- Area Under the Curve ± SEM (intracellular calcein accumulation) (MDR proteins [5]; 3.2 μM): 22.57 ± 0.729
